Format in all cases: cell-based
Series [1] concerns Aspergillus brasiliensis (DSM 1988/ATCC 16404). In words: microbe, parasite or virus in culture. The source says:
(§1) The following bacteria and fungi strains and methods were used:
Aspergillus brasiliensis (2d) and (9d): MIC determined in accordance with a method of the European Committee on Antimicrobial Susceptibility Testing: EUCAST E.DEF 9.1, July 2008, “Method for the determination of broth dilution minimum inhibitory concentrations of antifungal agents for conidia forming moulds” available under www.eucast.

Series [2] relates to Candida albicans (DSM 1386/ATCC 10231). Description: microbe, parasite or virus in culture. To be noted: C. albicans.
Source text: as §1
Candida albicans: MIC determined in accordance with the method described in EUCAST DEFINITIVE DOCUMENT EDef 7.2 “Method for the determination of broth dilution minimum inhibitory concentrations of antifungal agents for yeasts” available under www.eucast.org.

Series [3] deals with Escherichia coli (DSM 1576/ATCC 8739). In words: microbe, parasite or virus in culture. To be noted: E. coli.
Source text: as §1
(§2) Pseudomonas aeruginosa and Escherichia coli: MIC determined in accordance with DIN EN ISO 20776-1: 2006.

The subject of series [4] is Pseudomonas aeruginosa (DSM 1128/ATCC 9027). In words: microbe, parasite or virus in culture. To be noted: P. aeruginosa.
Source text: as §1, §2

In series [5] the test system is Human corneal epithelial cells (HCE-T-cell line). In words: MTT toxicity test. To be noted: compound 0.01%, 10 minutes treatment, in reference to KRB (100% viability) and Triton X (0% viability). The protocol: The toxicity of the compounds of the invention was determined in accordance with a conventional MTT test. Human corneal epithelial cells (HCE-T-cell line) were cultivated in 5% Sasaki cell culture medium consisting of 250 ml DMEM (Dulbecco's Modified Eagle's Medium), 250 ml Ham's F12 medium, 27.17 ml fetale calf serum, 543.4 μl insulin 5 mg/ml, 1.086 ml EGF stock solution 5 μg/ml, 2.717 ml DMSO and 5.43 ml antibiotic/antimycotic solution. The cells were seeded into a 96 wells cell culture plate (18 000 cells/well) and grown in an incubator for about 24 h (37° C., 5% CO2). The medium was removed and the test compounds dissolved in KRB (Krebs Ringer buffer) were applied. 100 μl KRB were used as positive control whereas a 0.5% Triton X solution was used as negative control.
After incubation for 10 min. under light protection the test compounds were removed and the plates were rinsed once with 100 μl phosphate buffered saline (PBS without Mg and Ca) per well. After removal of PBS 100 μl MTT reagent (0.05%) were added into each well followed by incubation for 3h at 37° C. under light protection. Thereafter, the reagent was removed and replaced by 100 μl lysis solution. The dark blue dye was dissolved from the cells by shaking. After 30 min. the plate was evaluated by UV spectroscopy at 570 nm.
For orientation: Tetrazolium dyes change colour on reduction, which living cells bring about.

Each structure is given as a SMILES string.

In the case of `c1cc(-c2cc[n+](CCCC[n+]3ccc(-c4ccncc4)cc3)cc2)ccn1` [Comp. ex. 3, reference compound], the MIC in series [1] (48 h, A. bras. (2d)) was 200 µg/mL; in series [1] (216 h, A. bras. (9d)) it was 200 to 400 µg/mL; in series [2], 200 µg/mL; in series [3] it was 200 µg/mL; in series [4] it was over 400 µg/mL.

Consider `BrCCCC[n+]1ccc(-c2ccncc2)cc1` [Ex. 5], for which the MIC in series [1] (48 h, A. bras. (2d)) is 3.1 µg/mL; in series [1] (216 h, A. bras. (9d)), 3.1 to 50 µg/mL; in series [2], 1.56 µg/mL; in series [3], 6.3 µg/mL; in series [4] it was 12.5 µg/mL. In series [5], this molecule returned a Viability of 83.8 ± 12.6%.

Regarding `CC[N+](CC)(CC)C/C=C/C[n+]1ccc(CCCc2cc[n+](C/C=C/C[n+]3ccc(CCCc4cc[n+](C/C=C/C[N+](CC)(CC)CC)cc4)cc3)cc2)cc1` [Ex. 3], the MIC in series [1] (48 h, A. bras. (2d)) is 12.5 µg/mL; in series [1] (216 h, A. bras. (9d)), 12.5 to 25 µg/mL; in series [2], under 3.1 µg/mL; in series [3] it was 50 µg/mL; in series [4], 25 µg/mL. Besides, the Viability in series [5] came out at 90.3 ± 7.0%.

Consider `CCCCCCCCCCCC[N+](C)(C)CCCC[n+]1ccc(-c2ccncc2)cc1` [Ex. 6.2], for which the MIC is 6.3 µg/mL in series [1] (48 h, A. bras. (2d)); 6.3 µg/mL in series [1] (216 h, A. bras. (9d)); under 3.12 µg/mL in series [2]; 6.3 µg/mL in series [3]; 12.5 µg/mL in series [4]. Also, the Viability in series [5] is given as 74.9 ± 12.0%.
